The values below are quoted from earlier work in patent US20040260072A1, “Hydrophilic, thiol-reactive cyanine dyes and conjugates thereof with biomolecules for fluorescence diagnosis” (priority 2003, published 2004).

The conditions of this data set: in DMSO; J Chem Eng Data 1977, 22, 379.

As for `CC1(C)C(/C=C/C=C/C=C/C=C2\N(CCCCS(=O)(=O)O)c3ccc4ccccc4c3C2(C)C)=[N+](CCCCS(=O)(=O)[O-])c2ccc3ccccc3c21` [Indocyanine Green], the “Fluorescence quantum yield Q” value is reported as 0.13.
